In the assay the target is human active recombinant p38α-6His tagged (Homo sapiens, UniProt Q16539). In words: P38 Alpha Enzyme Assay (AlphaScreen, biotinylated-ATF2 substrate).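 Also: 0.5 nM final p38α, reaction started with ATP and run 45 min at 37 °C, phospho-ATF2 read by antibody-based AlphaScreen, background wells quenched with EDTA before ATP.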 The note with it: p38 alpha enzyme inhibition; means of replicate determinations; 4 h pre-incubation at 37° C.; SD of assay 0.2-0.3 log units. Format: biochemical. (In general: Bead proximity is the source of the signal in Alpha formats.)
Sequence of human active recombinant p38α-6His tagged (Q16539 whole entry): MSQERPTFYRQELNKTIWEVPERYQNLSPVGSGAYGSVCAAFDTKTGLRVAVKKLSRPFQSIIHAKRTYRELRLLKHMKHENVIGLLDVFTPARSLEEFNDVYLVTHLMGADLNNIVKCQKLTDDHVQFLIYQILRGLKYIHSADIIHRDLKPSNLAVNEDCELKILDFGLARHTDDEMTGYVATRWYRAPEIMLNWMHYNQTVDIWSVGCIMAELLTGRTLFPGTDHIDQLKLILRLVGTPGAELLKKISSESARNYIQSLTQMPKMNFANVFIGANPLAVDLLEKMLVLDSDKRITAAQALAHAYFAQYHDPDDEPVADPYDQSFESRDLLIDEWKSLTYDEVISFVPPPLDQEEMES
A word on the pIC50: it is the negative decadic logarithm of the IC50, by convention in mol/L. As for `CCNC[C@@H](O)COc1ccccc1C(C)(C)Nc1nccn(-c2cc(C(=O)NC3CC3)cc(F)c2C)c1=O` [Example 308, N-Cyclopropyl-3-[3-{[1-(2-{[(2R)-3-(ethylamino)-2-hydroxypropyl]oxy}phenyl)-1-methylethyl]amino}-2-oxopyrazin-1(2H)-yl]-5-fluoro-4-methylbenzamide], the pIC50 turned out to be 10.4. As to `Cc1ccc(C(=O)NC2CC2)cc1-n1ccnc(N[C@@H](c2ccccc2)[C@@H](C)CN2C[C@@H](C)N[C@@H](C)C2)c1=O` [Example 194, N-Cyclopropyl-3-[3-[[(1R,2S)-3-[(3R,5S)-3,5-dimethyl-1-piperazinyl]-2-methyl-1-phenylpropyl]amino]-2-oxo-1(2H)-pyrazinyl]-4-methyl-benzamide], the pIC50 turned out to be 9.1. With `Cc1ccc(C(=O)NC2CC2)cc1-n1ccnc(NC2(c3ccccc3OCCN3CC[C@@H](O)C3)CC2)c1=O` [Example 236, N-Cyclopropyl-3-[3-[[1-[2-[2-[(3R)-3-hydroxy-1-pyrrolidinyl]ethoxy]phenyl]cyclopropyl]amino]-2-oxo-1(2H)-pyrazinyl]-4-methyl-benzamide], the pIC50 was found to be 10. Regarding `Cc1ccc(C(=O)NC2CC2)cc1-n1ccnc(NC2(c3cc(F)ccc3OCCNCCO)CC2)c1=O` [Example 279, N-Cyclopropyl-3-[3-[[1-[5-fluoro-2-[2-[(2-hydroxyethyl)amino]ethoxy]phenyl]cyclopropyl]amino]-2-oxo-1(2H)-pyrazinyl]-4-methyl-benzamide], the pIC50 was found to be 10.1. With `Cc1ccc(C(=O)NC2CC2)cc1-n1ccnc(NC2(c3ccccc3OCCNC(C)C)CC2)c1=O` [Example 234, N-Cyclopropyl-4-methyl-3-[3-[[1-[2-[2-[(1-methylethyl)amino]ethoxy]phenyl]cyclopropyl]amino]-2-oxo-1(2H)-pyrazinyl]-benzamide], the pIC50 was 10.3. On to `Cc1ccc(C(=O)NC2CC2)cc1-n1ccnc(NC(C)(C)c2ccccc2OCCCCN2CCN(C)CC2)c1=O` [Example 206, N-Cyclopropyl-4-methyl-3-[3-[[1-methyl-1-[2-[4-(4-methyl-1-piperazinyl)butoxy]phenyl]ethyl]amino]-2-oxo-1(2H)-pyrazinyl]-benzamide], for which the pIC50 is recorded as 9.3. Take `Cc1ccc(C(=O)NC2CC2)cc1-n1ccnc(NCc2ccc(C(C)(C)C)cc2)c1=O` [Example 37, N-Cyclopropyl-3-[3-[[[4-(1,1-dimethylethyl)phenyl]methyl]amino]-2-oxo-1(2H)-pyrazinyl]-4-methyl-benzamide]: the pIC50 came to 6.1. Regarding `Cc1ccc(C(=O)NC2CC2)cc1-n1ccnc(N[C@@H](c2ccccc2)[C@@H](C)CN(C)CCN(C)C)c1=O` [Example 156, N-Cyclopropyl-3-[3-[[(1R,2S)-3-[[2-(dimethylamino)ethyl]methylamino]-2-methyl-1-phenylpropyl]amino]-2-oxo-1(2H)-pyrazinyl]-4-methyl-benzamide], the pIC50 turned out to be 8.9. For the molecule `Cc1ccc(C(=O)NC2CC2)cc1-n1ccnc(NC2(c3ccccc3OCCN)CC2)c1=O` [Example 251, 3-[3-[[1-[2-(2-aminoethoxy)phenyl]cyclopropyl]amino]-2-oxo-1(2H)-pyrazinyl]-N-cyclopropyl-4-methyl-benzamide], the pIC50 came out at 10.1.

As for `CCc1ccc(C(=O)NC2CC2)cc1-n1ccnc(NC(C)(C)c2ccccc2OCCNC[C@H](C)O)c1=O` [Example 289, N-Cyclopropyl-4-ethyl-3-[3-({1-[2-(2-{[(2S)-2-hydroxypropyl]amino}ethoxy)phenyl]-1-methylethyl}amino)-2-oxopyrazin-1(2H)-yl]benzamide], the pIC50 is on record as 8.9.

`CSc1ccccc1CNc1nccn(-c2cc(C(=O)NC3CC3)ccc2C)c1=O` [Example 128, N-Cyclopropyl-4-methyl-3-[3-[[[2-(methylthio)phenyl]methyl]amino]-2-oxo-1(2H)-pyrazinyl]-benzamide]: the pIC50 worked out at 8.2. Take `CCc1ccc(C(=O)NC2CC2)cc1-n1ccnc(NC(C)(C)c2ccccc2OCCNC)c1=O` [Example 288, N-Cyclopropyl-4-ethyl-3-{3-[(1-methyl-1-{2-[2-(methylamino)ethoxy]phenyl}ethyl)amino]-2-oxopyrazin-1(2H)-yl}benzamide]: the pIC50 was 8.4. As for `Cc1ccc(C(=O)NC2CC2)cc1-n1ccnc(Sc2ccccc2)c1=O` [Example 117, N-Cyclopropyl-4-methyl-3-[2-oxo-3-(phenylthio)-1(2H)-pyrazinyl]-benzamide], the pIC50 came out at 6.8.

For `Cc1ccc(C(=O)NC2CC2)cc1-n1ccnc(NC(C)(C)c2ccccc2OCCNCCO)c1=O` [Example 211, N-Cyclopropyl-3-[3-[[1-[2-[2-[(2-hydroxyethyl)amino]ethoxy]phenyl]-1-methylethyl]amino]-2-oxo-1(2H)-pyrazinyl]-4-methyl-benzamide], the pIC50 is given as 9.6. Next, `CONC(=O)c1ccc(C)c(-n2ccnc(NC(C)(C)c3ccccc3)c2=O)c1` [Example 112, N-Methoxy-4-methyl-3-[3-[(1-methyl-1-phenylethyl)amino]-2-oxo-1(2H)-pyrazinyl]]: 9.4; `CONC(=O)c1ccc(C)c(-n2ccnc(N[C@@H](c3cccc4ccccc34)[C@@H](C)CN3CCOCC3)c2=O)c1` [Example 161, N-Methoxy-4-methyl-3-[3-[[(1R,2S)-2-methyl-3-(4-morpholinyl)-1-(1-naphthalenyl)propyl]amino]-2-oxo-1(2H)-pyrazinyl]-benzamide]: 9.2; `Cc1cc(C)cc(CNc2nccn(-c3cc(C(=O)NC4CC4)ccc3C)c2=O)c1` [Example 95, N-Cyclopropyl-3-[3-[[(3,5-dimethylphenyl)methyl]amino]-2-oxo-1(2H)-pyrazinyl]-4-methyl-benzamide]: 7.7. For the molecule `CCNC[C@H](O)COc1ccccc1C(C)(C)Nc1nccn(-c2cc(C(=O)NC3CC3)cc(F)c2C)c1=O` [Example 309, N-Cyclopropyl-3-[3-{[1-(2-{[(2S)-3-(ethylamino)-2-hydroxypropyl]oxy}phenyl)-1-methylethyl]amino}-2-oxopyrazin-1(2H)-yl]-5-fluoro-4-methylbenzamide], the pIC50 was found to be 10.2.

Regarding `Cc1ccc(C(=O)NC2CC2)cc1-n1ccnc(N[C@@H](c2ccccc2)[C@@H](C)CN2CCC3(CC2)OCCO3)c1=O` [Example 179, N-Cyclopropyl-3-[3-[[(1R,2S)-3-(1,4-dioxa-8-azaspiro[4.5]dec-8-yl)-2-methyl-1-sphenylpropyl]amino]-2-oxo-1(2H)-pyrazinyl]-4-methyl-benzamide], the pIC50 was found to be 8.9. Next, `CCOc1ccccc1CNc1nccn(-c2cc(C(=O)NC3CC3)ccc2C)c1=O` [Example 78, N-Cyclopropyl-3-[3-[[(2-ethoxyphenyl)methyl]amino]-2-oxo-1(2H)-pyrazinyl]-4-methyl-benzamide]: 7.8. Consider `Cc1ccc(C(=O)NC2CC2)cc1-n1ccnc(N2CCN(C)CC2)c1=O` [Example 2, N-Cyclopropyl-4-methyl-3-[3-(4-methyl-1-piperazinyl)-2-oxo-1(2H)-pyrazinyl]-benzamide], for which the pIC50 came out at 6.4. Regarding `CCNCCOc1ccccc1C(CC)(CC)Nc1nccn(-c2cc(C(=O)NC3CC3)ccc2C)c1=O` [Example 267, N-Cyclopropyl-3-[3-[[1-ethyl-1-[2-[2-(ethylamino)ethoxy]phenyl]propyl]amino]-2-oxo-1(2H)-pyrazinyl]-4-methyl-benzamide], the pIC50 was found to be 9.5.

With `Cc1c(F)cc(C(=O)NC2CC2)cc1-n1ccnc(NC(C)(C)c2ccccc2OCCNCCO)c1=O` [Example 253, N-Cyclopropyl-3-fluoro-5-[3-[[1-[2-[2-[(2-hydroxyethyl)amino]ethoxy]phenyl]-1-methylethyl]amino]-2-oxo-1(2H)-pyrazinyl]-4-methyl-benzamide], the pIC50 came to 10.2.

As to `Cc1ccc(C(=O)NC2CC2)cc1-n1ccnc(N2CCNC(c3ccccc3)C2)c1=O` (stereo not drawn) [Example 53, N-Cyclopropyl-4-methyl-3-[2-oxo-3-(3-phenyl-1-piperazinyl)-1(2H)-pyrazinyl]-benzamide], the pIC50 was 7.4. Regarding `Cc1ccc(C(=O)NC2CC2)cc1-n1ccnc(NCCc2ccc(O)cc2)c1=O` [Example 70, N-Cyclopropyl-3-[3-[[2-(4-hydroxyphenyl)ethyl]amino]-2-oxo-1(2H)-pyrazinyl]-4-methyl-benzamide], the pIC50 was determined as 6.8.

As for `Cc1ccc(C(=O)NC2CC2)cc1-n1ccnc(N[C@@H](c2cccc3ccccc23)[C@@H](C)CN2CCCC2)c1=O` [Example 144, N-Cyclopropyl-4-methyl-3-[3-[[(1R,2S)-2-methyl-1-(1-naphthalenyl)-3-(1-pyrrolidinyl)propyl]amino]-2-oxo-1(2H)-pyrazinyl]-benzamide], the pIC50 was determined as 7.9. For `Cc1ccc(C(=O)NC2CC2)cc1-n1ccnc(N[C@@H](c2ccccc2)[C@@H](C)CN2CCC(CO)CC2)c1=O` [Example 151, N-Cyclopropyl-3-[3-[[(1R,2S)-3-[4-(hydroxymethyl)-1-piperidinyl]-2-methyl-1-phenylpropyl]amino]-2-oxo-1(2H)-pyrazinyl]-4-methyl-benzamide], the pIC50 worked out at 9.1. For the molecule `CNCCOc1ccccc1C1(Nc2nccn(-c3cc(C(=O)NOC)ccc3C)c2=O)CC1` [Example 317, N-Methoxy-4-methyl-3-{3-[(1-{2-[2-(methylamino)ethoxy]phenyl}cyclopropyl)amino]-2-oxopyrazin-1(2H)-yl}benzamide], the pIC50 is given as 10.1. As for `Cc1ccc(C(=O)NC2CC2)cc1-n1ccnc(NC[C@@H](C)c2ccccc2)c1=O` [Example 58, N-Cyclopropyl-4-methyl-3-[2-oxo-3-[[(2S)-2-phenylpropyl]amino]-1(2H)-pyrazinyl]-benzamide], the pIC50 is on record as 7. `CCNCCOc1ccccc1C(C)(C)Nc1nccn(-c2cc(C(=O)NC3CC3)ccc2C)c1=O` [Example 198, N-Cyclopropyl-3-[3-[[1-[2-[2-(ethylamino)ethoxy]phenyl]-1-methylethyl]amino]-2-oxo-1(2H)-pyrazinyl]-4-methyl-benzamide]: the pIC50 was determined as 9.6.

(Values after US20120214822A1 (ASTRAZENECA AB, priority 2007, published 2012).)
